Publication PMC12979188, “Systematic analyses of lipid mobilization by human lipid transfer proteins” (Nature, 2026)

Tests used:
RBP4 = RBP4 (Homo sapiens, UniProt P02753); assay: affinity purification, SEC and mass spectrometry lipidomics; assay type: cell-based; conditions: in cellulo, HEK293; retinoid form not specified beyond vitamin A
RBP1 = target: T1, RBP1 (Homo sapiens, UniProt P09455); assay: as above; assay type: cell-based; conditions: in cellulo, HEK293; retinoid form not specified beyond vitamin A
T1 sequence (P09455 1-135): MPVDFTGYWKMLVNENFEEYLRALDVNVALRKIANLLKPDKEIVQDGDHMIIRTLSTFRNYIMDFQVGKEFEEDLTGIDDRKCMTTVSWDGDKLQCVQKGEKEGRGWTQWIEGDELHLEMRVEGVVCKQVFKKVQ

For `CC1=C(/C=C/C(C)=C/C=C/C(C)=C/CO)C(C)(C)CCC1` [vitamin A], the “affinity purification, SEC and mass spectrometry lipidomics” value (RBP4) was “RBP1 and RBP4 formed complexes with vitamin A only in the cellular context” and the “affinity purification, SEC and mass spectrometry lipidomics” value (RBP1) was “RBP1 and RBP4 formed complexes with vitamin A only in the cellular context”.
